Results taken from the NIST ThermoML archive (doi:10.1021/je7006742).

Experiments:
[1] = 101 kPa, Liquid
[2] = xn = mol fraction of the nth substance listed; details: 101 kPa, Liquid

COc1ccc(C=O)cc1 [4-methoxybenzaldehyde]
[1]
Details	mass density [kg/m3]	viscosity [mPa·s]
298.15 K	1120	3.706
308.15 K	1112	2.83
318.15 K	1105	2.232

COc1ccc(C=O)cc1 [4-methoxybenzaldehyde] + C=CC#N
[2]
Details	mass density, 298.15 K [kg/m3]	mass density, 308.15 K [kg/m3]	mass density, 318.15 K [kg/m3]	speed of sound, 298.15 K [m/s]	viscosity, 298.15 K [mPa·s]	viscosity, 308.15 K [mPa·s]	viscosity, 318.15 K [mPa·s]
x2 = 0	1120	1112	1105	–	3.706	2.83	2.232
x2 = 0.222	1079	1072	1066	1446.6	2.035	1.828	1.53
x2 = 0.391	1040	1034	1029	1384.8	1.341	1.226	1.095
x2 = 0.524	1003	997	992	1345.8	0.865	0.852	0.798
x2 = 0.631	968	962	957	1310	0.742	0.678	0.644
x2 = 0.72	934	930	924	1277.6	0.55	0.538	0.515
x2 = 0.794	903	898	893	1244.6	0.545	0.469	0.443
x2 = 0.857	873	868	864	1217.8	0.415	0.404	0.39
x2 = 0.911	845	840	835	1201.6	0.435	0.369	0.37
x2 = 0.958	819	813	808	–	0.379	0.333	0.322
x2 = 0.959	–	–	–	1186.8	–	–	–

O=CC=Cc1ccccc1 [(E)-3-phenyl-2-propanal]
[1]
Details	mass density [kg/m3]	viscosity [mPa·s]
298.15 K	1046	3.478
308.15 K	1039	2.688
318.15 K	1032	2.296

O=CC=Cc1ccccc1 [(E)-3-phenyl-2-propanal] + C=CC#N
[2]
Details	mass density, 298.15 K [kg/m3]	mass density, 308.15 K [kg/m3]	mass density, 318.15 K [kg/m3]	speed of sound, 298.15 K [m/s]	viscosity, 298.15 K [mPa·s]	viscosity, 308.15 K [mPa·s]	viscosity, 318.15 K [mPa·s]
x2 = 0	1046	1039	1032	–	3.478	2.688	2.296
x2 = 0.2168	1017	1011	–	–	2.014	1.698	–
x2 = 0.217	–	–	1009	1487.6	–	–	1.456
x2 = 0.3837	990	985	–	–	1.4	1.215	–
x2 = 0.384	–	–	983	1433.3	–	–	1.078
x2 = 0.516	–	–	957	1403	–	–	0.83
x2 = 0.5163	964	958	–	–	1.02	0.906	–
x2 = 0.624	–	–	930	1372	–	–	0.684
x2 = 0.6241	937	931	–	–	0.795	0.724	–
x2 = 0.7135	911	905	–	–	0.646	0.603	–
x2 = 0.714	–	–	904	1330.3	–	–	0.581
x2 = 0.7889	886	881	–	–	0.56	0.519	–
x2 = 0.789	–	–	878	1288.7	–	–	0.457
x2 = 0.853	–	–	854	1251.2	–	–	0.43
x2 = 0.8532	862	856	–	–	0.474	0.441	–
x2 = 0.9088	839	833	–	–	0.423	0.405	–
x2 = 0.909	–	–	830	1224.1	–	–	0.394
x2 = 0.957	–	–	805	1186.8	–	–	0.348
x2 = 0.9573	817	810	–	–	0.388	0.359	–

C=CC#N [acrylonitrile]
[1]
Details	mass density [kg/m3]	viscosity [mPa·s]
298.15 K	794	0.344
308.15 K	788	0.307
318.15 K	783	0.284

C=CC#N [acrylonitrile] + COc1ccc(C=O)cc1
[2], x1 = 1
Details	mass density [kg/m3]	viscosity [mPa·s]
298.15 K	794	0.344
308.15 K	788	0.307
318.15 K	783	0.284

C=CC#N [acrylonitrile] + O=CC=Cc1ccccc1
[2], x1 = 1
Details	mass density [kg/m3]	viscosity [mPa·s]
298.15 K	794	0.344
308.15 K	788	0.307
318.15 K	783	0.284

C=CC#N [acrylonitrile] + O=Cc1ccccc1
[2]
Details	mass density, 298.15 K [kg/m3]	mass density, 308.15 K [kg/m3]	mass density, 318.15 K [kg/m3]	speed of sound, 298.15 K [m/s]	viscosity, 298.15 K [mPa·s]	viscosity, 308.15 K [mPa·s]	viscosity, 318.15 K [mPa·s]
x1 = 0.182	1022	1011	1005	1412.7	1.224	1.071	0.973
x1 = 0.333	995	985	980	1394.7	1.079	0.941	0.851
x1 = 0.462	969	959	954	1353.1	0.958	0.827	0.746
x1 = 0.571	940	932	928	1322.4	0.842	0.724	0.653
x1 = 0.667	914	906	902	1292.8	0.74	0.63	0.571
x1 = 0.75	887	880	877	1259.4	0.649	0.55	0.5
x1 = 0.824	863	856	854	1237.6	0.565	0.478	0.436
x1 = 0.889	839	833	830	1212	0.484	0.416	0.379
x1 = 0.947	816	810	806	1186.8	0.41	0.358	0.328
x1 = 1	794	788	783	–	0.344	0.307	0.284

O=Cc1ccccc1 [benzaldehyde]
[1]
Details	mass density [kg/m3]	viscosity [mPa·s]
298.15 K	1041	1.399
308.15 K	1034	1.224
318.15 K	1027	1.12

O=Cc1ccccc1 [benzaldehyde] + C=CC#N
[2], x2 = 0
Details	mass density [kg/m3]	viscosity [mPa·s]
298.15 K	1041	1.399
308.15 K	1034	1.224
318.15 K	1027	1.12
